Like-named read-outs stand apart in the source and are kept apart here.
What was measured:
[1] = target: human neprilysin (NEP) (Homo sapiens, UniProt P08473); experiment: in vitro human neprilysin inhibitor activity (pKi); format: biochemical
Text: One measure of the ability of a compound to inhibit NEP activity is the inhibition constant (pKi). The pKi value is the negative logarithm to base 10 of the dissociation constant (Ki), which is typically reported in molar units. The compound of the invention has a pKi at NEP≥9.0.
The in vitro-to-in vivo extrapolation of drug behavior in a subject continues to improve (see, e.g., Chiba et al., AAPS J., 2009 June; 11 (2): 262-276). In the present invention, in vitro human neprilysin inhibitor activity was assessed in order to determine neprilysin inhibitory activity of Compound I and crystalline form I′. A threshold of pKi>9.0 was met. However, additional in vivo experiments were further performed in order to more accurately predict the behavior of Compound I and crystalline form I′ in a subject.

[2] = Assay 4: Phase 1 multiple-ascending dose study, renal elimination; format: in vivo; conditions: human, after multiple dosing, Day 1 and Day 14, all subjects
Method: A Phase 1 multiple-ascending dose (MAD) clinical trial of Compound I′ (Form I) was conducted in order to further evaluate the safety, tolerability, pharmacokinetics of Compound I and its metabolite, pharmacodynamics of Compound I, food effect, absolute oral bioavailability and renal elimination of multiple ascending oral doses of Compound I′ in healthy adult and elderly subjects. As discussed below, the reported data confirms the results stemming from the SAD clinical trial.
The Phase 1 study was a double-blind, randomized placebo-controlled multiple ascending dose study in healthy male and female volunteers randomized in a 4:1 ratio. The study enrolled 50 healthy adult (19-55 years old) and elderly (65-80 years old) volunteers over multiple weeks for the ascending-dose portion, which included cohorts (n=10/cohort of 8 active and 2 placebo) administered (1) ascending doses of 50 mg, 100 mg, and 200 mg, (2) a dose of 10 mg studied in parallel with 200 mg for PK/PK, and (3) a dose of 100 mg for one elderly cohort. […] Additionally, renal elimination of Compound I was neglible after multiple dosing, e.g., <1% was observed on Day 1 and Day 14 for all subjects.

[3] = Assay 1: IV/PO pharmacokinetic study in monkeys; format: in vivo, male cynomolgus monkeys; conditions: for bioavailability / AUC(0-t): cynomolgus monkey, plasma; for AUC(0-t): read-out: AUClast Mean; for CLlast Mean: monkey
Method: A monkey PK study was performed with an appropriate mass of Compound I in volume of vehicle (e.g., 5% sodium bicarbonate, 5% dextrose in H2O, pH 7.4, for oral and IV and filtered through a […] PDVF syringe for IV) such that the final concentration was dosed at 1.0 mg/mL for both IV and PO.
Intravenous doses of Compound I were administered through an indwelling catheter in the cephalic vein followed by a saline flush of approximately 3 mL. Intravenous doses were administered at a volume of 1 mL/kg. Oral doses were delivered into the stomach using a syringe and gavage tube followed by a water flush of approximately 10 mL. Oral doses were administered at a volume of 2 mL/kg. Blood samples were collected from each animal at each time point (pre-dose, 0.083 h, 0.25 h, 0.5 h, 1 h, 2 h, 4 h, 6 h, 8 h, 12 h, and 24 h) via the cephalic, femoral, or sphenous vein through […]. All samples were collected into K2EDTA tubes and placed on ice. Samples were processed to plasma by centrifugation (3200 rpm, 10 minutes, 5° C.), and acidified with a final concentration of 2% acetic acid. Aliquots of plasma were transferred to a 96-well plate tubes and stored frozen (−70° C.) prior to bioanalysis.
Plasma concentrations of Compound I were determined by LC/MS/MS. Plasma study samples were vortexed and placed in a 96-well plate. The samples were extracted with 200 μL of acetonitrile with an internal standard. The extract was centrifuged for 10 minutes at 2809 RPM and 50 μL supernatant was mixed with 200 μL 0.2% formic acid in water. Samples (10-15 μL) were injected on a ThermoFisher HyPURITY™ (C18 50×2.1 mm) column with a flow rate of 0.35 mL/min. Mobile phase A consisted of water: acetonitrile: formic acid (95:5:0.1, v:v:v) and Mobile phase B consisted of methanol: acetonitrile: formic acid (50:50:0.1, v:v:v) (dog). Mobile phase A consisted of 0.2% formic acid in water and mobile phase B consisted of 0.2% formic acid in acetonitrile (rat and monkey). Pharmacokinetic parameters of Compound I were determined by non-compartmental analysis (Model 201 and Model 200 for IV and PO administration, respectively) using Phoenix WinNonlin Version 6.3 (Certara, Sunnyvale, CA) and using individual plasma concentration time profiles from 3 animals per treatment group.
Plasma clearance was determined from the intravenous arm of the study, and represents the rate at which plasma is cleared of drug. It is equal to the dose divided by the area under the plasma concentration-time curve. In addition to plasma clearance, it is also essential for an orally administered drug to reach efficacious systemic levels following oral delivery. Oral bioavailability is a measurement of plasma exposures following oral administration relative to exposures following intravenous administration.

[4] = Assay 3.2: PK profile, oral bioavailability and renal excretion in human (SAD, 14C i.v. microtracer); format: in vivo
Method: A Phase 1 single-ascending dose (SAD) clinical trial of Compound I′ (Form I), which converts to or dissolves to provide its soluble form Compound I in the body, was conducted in order to assess neprilysin inhibition for the treatment of a range of cardiovascular and renal diseases, including, e.g., chronic kidney disease, diabetic nephropathy, acute and chronic heart failure, heart failure with reduced ejection fraction, heart failure with preserved ejection fraction, post-myocardial infarction asymptomatic left ventricular dysfunction (post-MI asymptomatic LVD), subacute heart failure and resistant and isolated systolic hypertension. Safety and tolerability, pharmacokinetic (support for QD/BID dosing and non-renal excretion), pharmacodynamic (test for target engagement biomarkers cGMP and ANP), food effect, and absolute oral bioavailability and renal elimination using a ^14C intravenous microtracer, inter alia, were tested.
The Phase 1 study was a double-blind, randomized placebo-controlled single ascending dose study in healthy male and female volunteers randomized in a 4:1 ratio. The study enrolled 56 healthy volunteers over multiple weeks for the ascending-dose portion, which included cohorts (n=10/cohort of 8 active and 2 placebo) administered single ascending doses of 50 mg, 100 mg, 200 mg, 400 mg and 600 mg. A sixth cohort (n=6) was administered i.v. microtracer and oral doses of 10 μg and 100 mg, respectively.

Chain of human neprilysin (NEP) (P08473 whole entry): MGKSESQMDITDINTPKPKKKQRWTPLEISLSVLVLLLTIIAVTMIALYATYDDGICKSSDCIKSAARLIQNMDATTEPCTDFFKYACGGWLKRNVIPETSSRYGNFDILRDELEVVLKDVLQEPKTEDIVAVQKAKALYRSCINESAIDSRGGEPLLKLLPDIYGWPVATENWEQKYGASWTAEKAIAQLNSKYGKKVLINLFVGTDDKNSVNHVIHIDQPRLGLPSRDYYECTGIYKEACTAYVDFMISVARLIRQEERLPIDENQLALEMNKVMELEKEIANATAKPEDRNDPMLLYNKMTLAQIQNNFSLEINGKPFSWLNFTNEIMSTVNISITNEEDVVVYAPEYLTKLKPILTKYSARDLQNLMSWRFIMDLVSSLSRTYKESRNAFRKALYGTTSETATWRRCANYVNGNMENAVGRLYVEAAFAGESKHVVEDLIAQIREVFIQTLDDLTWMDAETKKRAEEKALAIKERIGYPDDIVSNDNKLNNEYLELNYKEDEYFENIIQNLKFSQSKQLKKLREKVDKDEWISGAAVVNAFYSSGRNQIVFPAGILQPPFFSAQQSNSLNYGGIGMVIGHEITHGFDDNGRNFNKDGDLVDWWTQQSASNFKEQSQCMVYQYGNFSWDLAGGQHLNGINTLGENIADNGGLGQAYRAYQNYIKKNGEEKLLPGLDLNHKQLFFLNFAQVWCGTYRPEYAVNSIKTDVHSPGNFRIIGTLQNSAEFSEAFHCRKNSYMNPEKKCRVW

- Ki [1]: < 1 nM
- renal elimination [2]: < 1%
- bioavailability ([3]; po, higher doses (30 and 100 mg/kg), three different formulations, data not shown, read-out: mean bioavailability): 55 to 83%
- bioavailability ([3]; male, IV 1 mg/kg, PO 2 mg/kg, read-out: Oral Bioavailability Mean): 41.8%
- AUC(0-t) ([3]; male, IV, 1 mg/kg): 2290 ng·h/mL
- AUC(0-t) ([3]; male, PO, 2 mg/kg): 1910 ng·h/mL
- CLlast Mean ([3]; IV, 1 mg/kg): 6.33 mL/min/kg
- CLlast Mean ([3]; PO, 2 mg/kg): 21.8 mL/min/kg
- bioavailability ([4]; both sexes, in vivo, po, 100 mg, human, SAD clinical trial): ~80%
- pharmacokinetic profile ([4]; healthy subjects, single doses 50-600 mg): dose-proportional
- renal elimination (of total administered dose) ([4]; human, SAD clinical trial, confirmed by intravenous microtracer): < 1%
Compound: CCOC[C@](C)(C[C@@H](Cc1ccc(-c2cc(Cl)ccc2F)cc1)NC(=O)c1cc(O)no1)C(=O)O [Compound I, (2S,4R)-5-(5′-Chloro-2′-fluoro-[1,1′-biphenyl]-4-yl)-2-(ethoxymethyl)-4-(3-hydroxyisoxazole-5-carboxamido)-2-methylpentanoic Acid]

Reference: patent US12351561B2, “Crystalline (2S,4R)-5-(5'-chloro-2'-fluoro-[1,1'-biphenyl]-4-yl)-2-(ethoxymethyl)-4-(3-hydroxyisoxazole-5-carboxamido)-2-methylpentanoic acid and uses thereof” (THERAVANCE BIOPHARMA R&D IP, LLC, priority 2016, dated 2025)
